Results from the NIST ThermoML archive (doi:10.1021/acs.jced.7b00381).

Settings: Fluid (supercritical or subcritical phases), isochoric method

FC(F)(F)/C=C/C(F)(F)F [trans-1,1,1,4,4,4-hexafluoro-2-butene]
Settings	mass density [kg/m3]
323.43 K, 579.7 kPa	1212.1
333.44 K, 5332.4 kPa	1210.9
333.46 K, 1305.2 kPa	1180.7
343.44 K, 10088 kPa	1209.8
343.45 K, 5602.3 kPa	1179.6
353.44 K, 1232.2 kPa	1093.7
353.44 K, 4087.2 kPa	1128.3
353.46 K, 9911.4 kPa	1178.4
363.43 K, 7766.9 kPa	1127.2
363.44 K, 4495.7 kPa	1092.6
363.45 K, 2343 kPa	1061.2
373.43 K, 1203.4 kPa	83.9
373.43 K, 1779.9 kPa	991.3
373.44 K, 7789.6 kPa	1091.5
373.46 K, 5302.7 kPa	1060.2
383.41 K, 1661.4 kPa	129.2
383.43 K, 2410.5 kPa	940.3
383.44 K, 1263 kPa	83.9
383.44 K, 4128.8 kPa	990.3
383.46 K, 8290.7 kPa	1059.2
393.42 K, 1764.3 kPa	129.1
393.44 K, 1320.8 kPa	83.8
393.44 K, 6524 kPa	989.3
393.45 K, 2531 kPa	848.7
393.45 K, 4410.6 kPa	939.4
403.43 K, 1863.4 kPa	128.9
403.43 K, 2784.5 kPa	594.5
403.43 K, 3331.6 kPa	794.2
403.44 K, 1377.2 kPa	83.7
403.44 K, 2465.8 kPa	220.8
403.44 K, 2774.4 kPa	460.7
403.44 K, 2774.7 kPa	402.7
403.44 K, 2776.5 kPa	535.5
403.44 K, 4004.8 kPa	847.9
403.44 K, 8946 kPa	988.4
403.45 K, 2727.9 kPa	325
403.45 K, 2855.7 kPa	688.4
403.45 K, 3069.1 kPa	755.5
403.45 K, 6453.8 kPa	938.5
413.42 K, 1959.4 kPa	128.8
413.42 K, 3461.5 kPa	594
413.43 K, 3371.4 kPa	535
413.43 K, 4600.2 kPa	793.4
413.43 K, 5530.3 kPa	847.1
413.44 K, 1432.9 kPa	83.6
413.44 K, 2664.9 kPa	220.6
413.44 K, 3213.6 kPa	402.3
413.44 K, 3284.4 kPa	460.2
413.44 K, 8521.8 kPa	937.6
413.45 K, 3064.7 kPa	324.7
413.45 K, 4177.9 kPa	754.8
413.46 K, 3739.9 kPa	687.7
423.42 K, 2053.6 kPa	128.7
423.42 K, 3980.8 kPa	534.4
423.42 K, 4173.8 kPa	593.4
423.43 K, 1487.5 kPa	83.5
423.43 K, 3786.7 kPa	459.8
423.43 K, 5906.9 kPa	792.7
423.44 K, 7088.7 kPa	846.2
423.45 K, 2857.2 kPa	220.3
423.45 K, 3387.7 kPa	324.4
423.45 K, 3637.3 kPa	402
423.45 K, 5329 kPa	754
423.46 K, 4672.9 kPa	687
433.42 K, 2146.1 kPa	128.6
433.42 K, 4598 kPa	533.9
433.42 K, 4900.8 kPa	592.8
433.43 K, 1541.9 kPa	83.4
433.43 K, 4284.4 kPa	459.3
433.43 K, 4286.7 kPa	459.3
433.43 K, 8666.9 kPa	845.4
433.44 K, 3703.4 kPa	324.1
433.44 K, 7237.5 kPa	791.9
433.45 K, 3045.2 kPa	220.1
433.45 K, 4055.4 kPa	401.6
433.45 K, 5628.3 kPa	686.4
433.45 K, 6506.9 kPa	753.3
443.42 K, 1595.5 kPa	83.4
443.42 K, 5218.7 kPa	533.4
443.42 K, 5638.1 kPa	592.3
443.43 K, 2237.3 kPa	128.4
443.43 K, 4783.2 kPa	458.9
443.44 K, 4469 kPa	401.2
443.44 K, 7698.7 kPa	752.6
443.44 K, 8584 kPa	791.1
443.45 K, 3230.1 kPa	219.9
443.45 K, 4013.8 kPa	323.8
443.45 K, 6600.4 kPa	685.7
453.42 K, 2327.6 kPa	128.3
453.42 K, 5843.1 kPa	532.9
453.42 K, 6380.9 kPa	591.7
453.43 K, 1648.3 kPa	83.3
453.44 K, 4319.3 kPa	323.4
453.44 K, 5280.1 kPa	458.5
453.44 K, 9941.5 kPa	790.4
453.45 K, 3412.1 kPa	219.7
453.46 K, 4880.1 kPa	400.8
453.46 K, 7584.8 kPa	685
453.46 K, 8905 kPa	751.8
463.42 K, 1700 kPa	83.2
463.42 K, 7127.1 kPa	591.1
463.44 K, 2415.5 kPa	128.2
463.44 K, 6468.5 kPa	532.4
463.45 K, 5285.9 kPa	400.4
463.45 K, 10115 kPa	751.1
463.46 K, 3590.1 kPa	219.5
463.46 K, 4621.8 kPa	323.1
463.46 K, 5775.9 kPa	458
463.47 K, 8574.6 kPa	684.4
473.43 K, 7093.2 kPa	531.9
473.43 K, 7877 kPa	590.5
473.44 K, 1751.3 kPa	83.1
473.45 K, 3766 kPa	219.3
473.45 K, 4919.9 kPa	322.8
473.45 K, 5690.2 kPa	400
473.45 K, 6269.7 kPa	457.6
473.46 K, 2503.4 kPa	128.1
473.46 K, 9568.9 kPa	683.7
483.43 K, 7718.7 kPa	531.4
483.44 K, 6093 kPa	399.6
483.44 K, 6761.7 kPa	457.1
483.44 K, 8628.9 kPa	590
483.45 K, 1803.6 kPa	83
483.45 K, 5216.5 kPa	322.5
483.46 K, 2590.8 kPa	128
483.46 K, 3941.1 kPa	219.1
493.42 K, 8344.4 kPa	530.8
493.43 K, 2677.3 kPa	127.8
493.44 K, 9378.9 kPa	589.4
493.45 K, 1854.7 kPa	83
493.46 K, 5509.7 kPa	322.2
493.46 K, 6493.6 kPa	399.3
493.46 K, 7253 kPa	456.7
493.47 K, 4117.6 kPa	218.9
503.44 K, 2763.1 kPa	127.7
503.44 K, 8968.2 kPa	530.3
503.45 K, 1906.1 kPa	82.9
503.45 K, 7742.3 kPa	456.3
503.45 K, 10130 kPa	588.8
503.46 K, 6891.7 kPa	398.9
503.47 K, 4290.5 kPa	218.7
503.47 K, 5802.6 kPa	321.9
513.42 K, 2848.4 kPa	127.6
513.42 K, 8228 kPa	455.8
513.43 K, 9591.2 kPa	529.8
513.44 K, 1956.7 kPa	82.8
513.46 K, 4460.3 kPa	218.4
513.46 K, 7287.8 kPa	398.5
513.47 K, 6092.7 kPa	321.6
523.41 K, 2933.2 kPa	127.5
523.41 K, 8713.2 kPa	455.4
523.44 K, 6379.8 kPa	321.3
523.44 K, 10213 kPa	529.3
523.45 K, 2008.3 kPa	82.7
523.45 K, 7680.8 kPa	398.1
523.46 K, 4629.7 kPa	218.2
